Measurements from the NIST ThermoML archive (doi:10.1016/j.jct.2016.09.008).
Numbers after ± are expanded uncertainties.

Columns and labels:
[1] = 298.15 K; 101.33 kPa; Liquid; Vibrating tube method
[2] = refractive index (Na D-line) (dimensionless); conditions: 298.15 K; 101.33 kPa; Liquid; Standard Abbe refractometry
[3] = refractive index (Na D-line) (dimensionless); wn = mass fraction of the nth substance listed; conditions: 298.15 K; 101.1 kPa; Liquid; Standard Abbe refractometry; w1 = 0.85
[4] = wn = mass fraction of the nth substance listed; conditions: 298.15 K; 101.1 kPa; Liquid; Vibrating tube method; w1 = 0.85

mass density [1] [kg/m3] | refractive index [2] | refractive index [3] | mass density [4] [kg/m3] | Structure (SMILES)
1198.3 ± 2.4 | 1.419 ± 0.0005 | – | – | CC1COC(=O)O1 (stereo not given) [4-methyl-1,3-dioxolan-2-one]
– | – | 1.432 ± 0.0005 | 1682.8 ± 2.5 | O=P(O)(O)O [phosphoric acid] + O
– | 1.3326 ± 0.0005 | – | – | O [water]
